We go through 20 molecules from patent US20240076297A1, “ADENOSINE A2A AND A2B RECEPTOR DUAL ANTAGONISTS FOR IMMUNO-ONCOLOGY” (Merck Sharp & Dohme LLC, priority 2020, published 2024).

Experiment [1] addresses T1, human A2A adenosine receptor (Homo sapiens (Human), UniProt P29274). Briefly: A2A binding affinity using SPA, Method (B). The following applies: [3H] SCH58261, A2A receptor-expressing membranes. The text has this: (§1) Method (A) describes the procedure used to measure A2A binding affinity using radioligand binding. Method (B) describes the procedure used to measure A2A binding affinity using SPA technology. The method used to measure A2B binding affinity is also described below. The method used to determine the A2A IC50 value reported for each compound in the table is indicated next to the reported value. The A2B IC50 value measured using the A2B binding affinity assay is shown in the table next to the compound under the corresponding A2A value.
The A2A receptor affinity binding assay measured the amount of binding of a tritiated ligand with high affinity for the A2A adenosine receptor to membranes made from HEK293 or CHO cells recombinantly expressing the human A2A adenosine receptor, in the presence of varying concentrations of a compound of the invention. The data were generated using either filtration binding or a homogenous scintillation proximity assay (SPA).
Method (B): Measurement of A2A Binding Affinity Using SPA
Binding affinity using SPA was conducted as follows. Test compounds (50 nL) were dispensed into individual wells of a 384-well OptiPlate™ well (Perkin Elmer) by Echo® acoustic liquid transfer (Labcyte). 20 μL of 1.25 nM [^3H] SCH58261 ((7-(2-phenylethyl)-5-amino-2-(2-furyl)-pyrazolo-[4,3-e]-1,2,4-triazolo[1,5-c]pyrimidine)) in DPBS assay buffer (Dulbecco's phosphate buffered saline without calcium and magnesium, ThermoFisher Scientific, Cat. No. A1285601) supplemented with 10 mM MgCl2 was added. A2A receptor-expressing membranes were incubated with 20 μg/mL adenosine deaminase (Roche, Cat. No. 10 102 105 001) for 15 min at room temperature. The receptor-expressing membranes were then combined with wheat germ agglutinin-coated yttrium silicate SPA beads (GE Healthcare, Cat. No. RPNQ0023) in a ratio of 1:1000 (w/w) and incubated for 30 min at room temperature. 30 μL of the membrane/bead mixture (0.25 μg and 25 μg per well respectively) were added to the 384-well OptiPlate™ well. To define total and non-specific binding, wells containing 1% DMSO or 1 μM CGS15943 (Tocris Bioscience, Cat. No. 1699) respectively were also included in the experiment. The plate was incubated for 1 h at room temperature with agitation. The assay plate was then incubated for an h to allow the beads to settle before data were collected using a TopCount® (Perkin Elmer) scintillation counter. After normalization to total and non-specific binding, the percent effect at each compound concentration was calculated. The plot of percent effect versus the log of compound concentration was analyzed electronically using a 4-parameter logistic fit based on the Levenberg-Marquardt algorithm to generate IC50 values.

In experiment [2] the target is T1, human A2A adenosine receptor. Briefly: A2A binding affinity using radioligand binding, Method (A). The settings on record: Method (A): filtration radioligand binding, [3H] SCH58261, membranes expressing human A2A. The method, boiled down:
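Filtration binding used HEK293 or CHO membranes (5 μg/mL) preincubated with compound for 15–30 min at RT. [3H]SCH58261 (4 nM working solution) was added in Tris pH 7.4/10 mM MgCl2/0.005% Tween20 for 60 min at RT, with 1 μM ZM241385 defining nonspecific binding. Scintillation counts gave IC50 via 4-parameter logistic fit.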

Experiment [3] concerns the target human A2B adenosine receptor (Homo sapiens (Human), UniProt P29275). As to the kind of experiment: A2B binding affinity, radioligand filtration binding assay. The settings on record: HEK293 membranes expressing human A2B, tritiated proprietary antagonist.
Text: as §1
Measurement of A2B Binding Affinity
The reported affinity of the compounds of the invention for the human A2B adenosine receptor was determined experimentally using a radioligand filtration binding assay. This assay measures the amount of binding of a tritiated proprietary A2B receptor antagonist, in the presence and absence of a compound of the invention, to membranes made from HEK293 cells recombinantly expressing the human A2B adenosine receptor (Perkin Elmer, Cat. No. ES-013-C).
148 μL (135 μg/mL) membranes and 2 μL test compounds were transferred to individual wells of a 96-well polypropylene assay plate and incubated for 15 to 30 min at room temperature with agitation. Tritiated radioligand was diluted to a concentration of 14 nM in assay buffer (phosphate buffered saline without Magnesium and Calcium, pH 7.4; GE Healthcare Life Sciences, Cat. No. SH30256.01) and then 50 μL of the solution were transferred to each well of the assay plate. To define total and non-specific binding, wells containing 1% DMSO and 20 μM N-ethylcarboxamidoadenosine (Tocris Bioscience, Cat. No. 1691) respectively, were also included. The wells of the assay plate were incubated at room temperature for 60 min with agitation, then filtered using a FilterMate Harvester® (Perkin Elmer) or similar equipment through a UniFilter-96@ PEI coated plate (Perkin Elmer Cat. No. 6005274 or 6005277). Filtering was achieved by aspirating the contents of the assay plate for 5 sec, then washing and aspirating the contents three times with ice-cooled wash buffer (assay buffer supplemented with 0.0025% Brij58) and allowing the vacuum manifold to dry the plate for 30 sec. The filter plate was incubated for at least 1 h at 55° C. and allowed to dry. The bottom of the filter plate was then sealed with backing tape. 40 μL Ultima Gold™ (Perkin Elmer, Cat. No. 6013329) was added to each well of the filter plate and the top of the plate was sealed with TopSeal-A PLUS® clear plate seal (Perkin Elmer, Cat. No. 6050185). The plates were then incubated for at least 20 min, and then the amount of radioactivity remaining in each well was determined using a TopCount® (Perkin Elmer) scintillation counter. After normalization to total and non-specific binding, the percent effect at each compound concentration was calculated. The plot of percent effect versus the log of compound concentration was analyzed electronically using a 4-parameter logistic fit based on the Levenberg-Marquardt algorithm to generate IC50 values.

Chain of human A2B adenosine receptor (P29275 whole entry): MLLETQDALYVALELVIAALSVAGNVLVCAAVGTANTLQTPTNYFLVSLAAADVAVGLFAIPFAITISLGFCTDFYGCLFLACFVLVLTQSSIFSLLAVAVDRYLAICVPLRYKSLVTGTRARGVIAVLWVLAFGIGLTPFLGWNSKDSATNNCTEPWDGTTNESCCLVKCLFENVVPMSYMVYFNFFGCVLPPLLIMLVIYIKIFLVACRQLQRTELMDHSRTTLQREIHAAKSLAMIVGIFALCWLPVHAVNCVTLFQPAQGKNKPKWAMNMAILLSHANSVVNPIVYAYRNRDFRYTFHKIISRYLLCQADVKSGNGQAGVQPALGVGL
T1 sequence (P29274 whole entry): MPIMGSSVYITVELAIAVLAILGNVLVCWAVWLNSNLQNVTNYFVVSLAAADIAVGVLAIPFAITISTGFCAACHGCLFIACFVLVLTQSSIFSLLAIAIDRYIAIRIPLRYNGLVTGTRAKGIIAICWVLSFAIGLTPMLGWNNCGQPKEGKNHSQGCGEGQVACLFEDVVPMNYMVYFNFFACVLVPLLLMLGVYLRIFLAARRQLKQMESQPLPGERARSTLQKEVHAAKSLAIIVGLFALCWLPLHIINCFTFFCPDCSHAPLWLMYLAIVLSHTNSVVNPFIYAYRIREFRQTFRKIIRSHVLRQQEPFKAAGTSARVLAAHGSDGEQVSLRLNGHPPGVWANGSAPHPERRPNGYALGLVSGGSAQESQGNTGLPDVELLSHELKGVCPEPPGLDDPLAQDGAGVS

A word on the IC50: it is the concentration at which inhibition is half-maximal. A higher IC50 goes with weaker potency. With `COc1cccc2c1nc(N)n1nc(CCCSc3ccc(C(F)(F)F)cc3)nc21` [Example 1.2, 7-methoxy-2-(3-((4-(trifluoromethyl)phenyl)thio)propyl)-[1,2,4]triazolo[1,5-c]quinazolin-5-amine], the IC50 in experiment [1] was found to be 8.4 nM. The same measure, in the same setting: with `COc1cccc2c1nc(N)n1nc(COCC(F)F)nc21` [Example 4.10, 2-((2,2-difluoroethoxy)methyl)-7-methoxy-[1,2,4]triazolo[1,5-c]quinazolin-5-amine] the figure was 4.4 nM; with `CCOCc1nc2c3cccc(OC)c3nc(N)n2n1` [Example 4.2, 2-(ethoxymethyl)-7-methoxy-[1,2,4]triazolo[1,5-c]quinazolin-5-amine], 8.7 nM; with `COc1cccc2c1nc(N)n1nc(COC(C)C)nc21` [Example 4.13, 2-(isopropoxymethyl)-7-methoxy-[1,2,4]triazolo[1,5-c]quinazolin-5-amine], 5.7 nM.

Regarding `COc1cccc2c1nc(N)n1nc(COCc3c(C)ccnc3C)nc21` [Example 4.5, 2-(((2,4-dimethylpyridin-3-yl)methoxy)methyl)-7-methoxy-[1,2,4]triazolo[1,5-c]quinazolin-5-amine], in experiment [1], the IC50 worked out at 8.7 nM. Turning to `COc1cc2nc(N)n3nc(CC(C)S(C)(=O)=O)nc3c2cc1F` (single isomer, unassigned) [Example 13.2B, (R or S)-9-fluoro-8-methoxy-2-(2-(methylsulfonyl)propyl)-[1,2,4]triazolo[1,5-c]quinazolin-5-amine], the IC50 was 8.1 nM in experiment [2] and 1050 nM in experiment [3] (value given with marker (A)). The matching figures for `COc1cc2nc(N)n3nc(CCS(=O)(=O)C4CC4)nc3c2cc1F` [Example 13.14, 2-(2-(cyclopropylsulfonyl)ethyl)-9-fluoro-8-methoxy-[1,2,4]triazolo[1,5-c]quinazolin-5-amine]: 9.1 nM and 197 nM. The matching figures for `COc1cc2nc(N)n3nc(CCS(=O)(=O)c4ccc(F)cc4)nc3c2cc1F` [Example 13.13, 9-fluoro-2-(2-((4-fluorophenyl)sulfonyl)ethyl)-8-methoxy-[1,2,4]triazolo[1,5-c]quinazolin-5-amine]: 57.7 nM and 1040 nM.

Take `COc1cccc2c1nc(N)n1nc(CCC3CCc4c(nnn4C4CC(F)(F)C4)C3)nc21` (single isomer, unassigned) [Example 5.3B, (R or S)-2-(2-(1-(3,3-difluorocyclobutyl)-4,5,6,7-tetrahydro-1H-benzo[d][1,2,3]triazol-5-yl)ethyl)-7-methoxy-[1,2,4]triazolo-[1,5-c]quinazolin-5-amine]: the IC50 in experiment [2] was 0.9 nM; in experiment [3] (value given with marker (A)), 3.1 nM.

`COc1cccc2c1nc(N)n1nc(CCS(C)(=O)=O)nc21` [Example 13.17, 7-methoxy-2-(2-(methylsulfonyl)ethyl)-[1,2,4]triazolo[1,5-c]quinazolin-5-amine]: the IC50 in experiment [2] was found to be 28.1 nM; in experiment [3] (value given with marker (A)), 410 nM. For `CCS(=O)(=O)CCc1nc2c3cc(F)cc(OC)c3nc(N)n2n1` [Example 13.15, 2-(2-(ethylsulfonyl)ethyl)-9-fluoro-7-methoxy-[1,2,4]triazolo[1,5-c]quinazolin-5-amine] the same measures were 9.8 nM and 220 nM. Take `CC[C@@H](O)Cc1nc2c3cccc(OC)c3nc(N)n2n1` [Example 17.2, (R)-1-(5-amino-7-methoxy-[1,2,4]triazolo[1,5-c]quinazolin-2-yl)butan-2-ol]: the IC50 in experiment [2] stood at 13.9 nM; in experiment [3] (value given with marker (B)), 307 nM. `COc1cc(F)cc2c1nc(N)n1nc(CCS(=O)(=O)C3CC3)nc21` [Example 13.10, 2-(2-(cyclopropylsulfonyl)ethyl)-9-fluoro-7-methoxy-[1,2,4]triazolo[1,5-c]quinazolin-5-amine]: the IC50 stood at 0.8 nM in experiment [2] and 9.8 nM in experiment [3] (value given with marker (A)). As for `COc1cccc2c1nc(N)n1nc([C@H](C)CO)nc21` [Example 17.4, (S)-2-(5-amino-7-methoxy-[1,2,4]triazolo[1,5-c]quinazolin-2-yl)propan-1-ol], the IC50 turned out to be 145 nM in experiment [2] and 1070 nM in experiment [3] (value given with marker (B)). In the case of `COc1cc(F)cc2c1nc(N)n1nc(CCC3CCc4nn(C(C)C)cc4C3)nc21` (single isomer, unassigned) [Example 5.4A, (S or R)-9-fluoro-2-(2-(2-isopropyl-4,5,6,7-tetrahydro-2H-indazol-5-yl)ethyl)-7-methoxy-[1,2,4]triazolo[1,5-c]quinazolin-5-amine], the IC50 in experiment [2] amounted to 1.9 nM; in experiment [3] (value given with marker (A)) it was 9.4 nM.

On to `COc1ccc2c(c1)nc(N)n1nc(CCS(=O)(=O)CC(C)C)nc21` [Example 13.8, 2-(2-(isobutylsulfonyl)ethyl)-8-methoxy-[1,2,4]triazolo-[1,5-c]quinazolin-5-amine], for which the IC50 amounted to 76.9 nM in experiment [2] and 894 nM in experiment [3] (value given with marker (A)). For the molecule `COc1cccc2c1nc(N)n1nc(CCS(=O)(=O)c3ccc(F)cc3)nc21` [Example 13.4, 2-(2-((4-fluorophenyl)sulfonyl)ethyl)-7-methoxy-[1,2,4]triazolo[1,5-c]quinazolin-5-amine], the half-inhibitory concentration (IC50) in experiment [2] worked out at 0.3 nM; in experiment [3] (value given with marker (A)), 973 nM. The matching figures for `COc1cccc2c1nc(N)n1nc(COCc3ccc(C(O)(C(F)(F)F)C(F)(F)F)cc3)nc21` [Example 4.1, 2-(4-(((5-amino-7-methoxy-[1,2,4]triazolo[1,5-c]quinazolin-2-yl)methoxy)methyl)phenyl)-1,1,1,3,3,3-hexafluoropropan-2-ol]: 0.1 nM and 0.6 nM. The matching figures for `COc1cccc2c1nc(N)n1nc(CCC3CCc4c(nnn4C(C)C)C3)nc21` (single isomer, unassigned) [Example 5.2B, (R or S)-2-(2-(1-isopropyl-4,5,6,7-tetrahydro-1H-benzo[d][1,2,3]triazol-5-yl)ethyl)-7-methoxy-[1,2,4]triazolo[1,5-c]quinazolin-5-amine]: 0.8 nM and 12 nM. For `COc1cccc2c1nc(N)n1nc(COCc3ccc(C(C)(C)O)cc3)nc21` [Example 4.15, 2-(4-(((5-amino-7-methoxy-[1,2,4]triazolo[1,5-c]quinazolin-2-yl)methoxy)methyl)phenyl)propan-2-ol] the same measures were 0.2 nM and 10 nM.
